Here are results for 1 molecule from article PMC5845353, “The selective cathepsin K inhibitor MIV-711 attenuates joint pathology in experimental animal models of osteoarthritis” (Journal of Translational Medicine, 2018).

As a reminder, the Ki is a measure of affinity in units of concentration, obtained from inhibition or displacement.

Data set [1] deals with cartilage degradation biomarker CTX-II. Kind of data set: Urinary CTX-II (cartilage degradation biomarker) in ACLT rabbits. The class given is in vivo, rabbit. How it is done:
Starting 1 week after sham operation or ACLT, animals were dosed daily for 7 weeks by oral gavage with either MIV-711 (synthesized by Medivir and given as a suspension in 1% Methocel A4C in water) or vehicle (1% Methocel A4C in water) at a dose volume of 4 mL/kg. The four treatment groups (n = 7 in each group) were: (1) sham + vehicle; (2) ACLT + vehicle; (3) ACLT + MIV-711, 30 µmol/kg (low dose) and (4) ACLT + MIV-711, 100 µmol/kg (high dose).
Urine was collected in the morning from all animals for biomarker measurements before surgery, before dosing on Day 1, Day 10 and during Week 4 and Week 7. The urine was stored frozen (− 70 to − 80 °C) until analysis.
In rabbits, conventional CTX-I assays to assess bone resorption cannot be used due to species differences. Instead, urinary helical peptide (HP-1) concentrations were measured in rabbits using the MicroVue Helical Peptide kit (Ref: 8022) from Quidel (San Diego, CA) according to the instructions supplied by the manufacturer. In dogs, urinary levels of C-terminal telopeptide of collagen type I (CTX-I) were measured using a commercially available kit (Urine BETA CrossLaps ELISA, Ref: AC-05F1, IDS Nordic Bioscience Diagnostics A/S). In rabbits and dogs, urinary concentrations of C-terminal telopeptide of collagen type II (CTX-II) were measured using the Urine CartiLaps EIA kit (Ref: AC-10F1) from Immunodiagnostics Systems (IDS, Herlev, Denmark) according to the instructions supplied by the manufacturer. In dogs, CTX-II levels were also measured in synovial fluid. Before ELISA analysis, 95 µL of synovial fluid was mixed with 5 µL of hyaluronidase (100 U/mL, Sigma, H-3884). The mixture was incubated overnight at 35 °C. The mixture was then used to measure CTX-II levels (Serum Pre-Clinical CartiLaps ELISA, Ref: AC-08F1, IDS Nordic Bioscience Diagnostics A/S). The creatinine levels in urine were determined at Swedish University of Agricultural Sciences (Uppsala, Sweden), using the enzymatic assay (Cat No. 8L24-01) on the Abbott system Architect c4000.

Data set [2] has as its system dogs subjected to partial medial meniscectomy. Kind of data set: Dog partial medial meniscectomy study, gross macroscopic scoring. The class given is in vivo. Conditions: MIV-711 30 µmol/kg. The text has this: The study design and animal usage were reviewed and approved by the IACUC at Preclinical Research Services (PCRS; Fort Collins, CO) for compliance with regulations before study initiation (IACUC Number 1021). Animal welfare, housing and research procedures for this study complied with the U.S. Department of Agriculture’s (USDA) Animal Welfare Act (9 CFR Parts 1, 2, and 3), the Guide for the Care and Use of Laboratory Animals, and PCRS Standard of Procedures. Thirty adult naïve female beagle dogs, with a weight of 7.5–11.3 kg and an age of approximately 6–8 months at study initiation, were used for this study. The dogs were acclimated for at least 7 days before study initiation.
At least 12 h before surgery, a fentanyl transdermal 2.5 mg patch was placed on the skin on the ventral aspect of the tail of each dog and secured into place with tape. The fentanyl patch delivered approximately 25 μg/h of analgesia for a total duration of 72–80 h. Dogs were also pre-medicated before surgery with glycopyrrolate (0.005–0.02 mg/kg), acepromazine (0.01–0.05 mg/kg) and morphine (0.5–1.0 mg/kg) injected subcutaneously. General anesthesia was induced using propofol (2–6 mg/kg) given intravenously; each dog was then intubated and maintained on isoflurane in oxygen (0.5–5%) administered to effect. The hair over the surgical site was clipped, and a preliminary aseptic prep of the area was done by alternating scrubs of chlorhexidine surgical scrub and sterile dry gauze sponges. A local anesthetic line block of lidocaine and bupivacaine (1.5 mg each) diluted in saline was administered at the incision site to provide local pre-emptive anesthesia. The limb was draped with a sterile fenestrated surgical drape. A small 2 cm medial parapatellar skin incision and a subsartorius capsular approach were made to expose the meniscus. For removal of the anterior one-half of the medial meniscus, the cranial meniscotibial ligament was incised, and the capsular attachments to the cranial pole of the meniscus were separated sharply with a scalpel under direct vision, sparing injury to the articular cartilage or the ACL. The medial meniscus was reflected medially with a hemostat. […] Animals were monitored closely throughout the recovery and post-operative period. […]
All animals were humanely euthanized on Day 29 to collect specimens for pathology. […] At study termination, the left (operated) knee was opened, disarticulated and the lesions on the medial tibia and femur measured, described and photographed. […] Lesions were classified as more severe or less severe depending on the intensity of India ink staining or perception of depth and areas for each calculated. Gross cartilage lesions were measured (length × width) and described as superficial, moderate, or deep. […]

The target in the next data set is cathepsin K from human. More on the design: method as in PMID 29743078. The settings on record: read-out: Ki against cathepsin K from human; cited from earlier work.
A further data set relates to plasma proteins. Kind of data set: Fraction bound to plasma proteins, human. Format: in vitro ADME.
The next data set has as its target dog cathepsin K enzyme. The settings on record: read-out: Ki against dog cathepsin K enzyme; cited from earlier work.

`C#C[C@@H]1CN(C(=O)[C@H](CC(C)C)NC(=O)c2ccc(-c3nc(N4CCN(C)CC4)sc3F)cc2)[C@@H]2C(=O)CO[C@H]12` [MIV-711]: the “CTX-II levels decreased by up to, vs ACLT vehicle controls” value in data set [1] (ACLT rabbits, over doses 30 and 100 µmol/kg and time points) is “up to 74%”. The “urinary CTX-II levels reduced by, vs ACLT rabbits treated with vehicle” value in data set [1] (after 4 weeks, 30 µmol/kg (p > 0.05)) stood at 38%; in data set [1] (after 4 weeks, 100 µmol/kg) it was 49%; in data set [1] (after 7 weeks, 30 µmol/kg (p > 0.05)), 14%; in data set [1] (after 7 weeks, 100 µmol/kg), 52%; in data set [1] (after 10 days of dosing, 30 µmol/kg), 53%; in data set [1] (after 10 days of dosing, 100 µmol/kg) it was 74%. Moreover, the “Macroscopic score, Calculated” value in data set [2] (Femur condyle) is 9.07 ± 4.78; in data set [2] (Tibia plateau), 23.88 ± 3.17. Also, the “Macroscopic score, Subjective” value in data set [2] (Femur condyle) worked out at 1.13 ± 0.32; in data set [2] (Tibia plateau), 2.33 ± 0.21. The inhibitory constant (Ki) on cathepsin K from human is 0.98 nM; at dog cathepsin K enzyme, 1.5 nM. Besides, the “fraction bound to plasma proteins” value in the data set with plasma proteins is 94%.
